Reference: article PMC10477861, “Efficient Mining of Anticancer Peptides from Gut Metagenome” (Advanced Science, 2023)
Where no end group is shown, it is not given here.

Tests used:
LCC = assay: MTT primary screening of anticancer activity, LCC; assay type: cell-based; conditions: 25 µM pACP, 24 h, maintenance medium 1% FBS, ratio of viability to vehicle (PBS), at least three technical repetitions
Method in brief: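 Primary screen at one c[…]ntration, 25 µM final. Treatment lasted 24 h in medium with 1% FBS, starting at 60% confluence, followed by MTT viability measurement.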

HEK293 cells = assay: Toxicity to HEK293 cells (MTT); assay type: cell-based; conditions: 1.5-100 µM pACP, 24 h, maintenance medium 1% FBS
Method: Furthermore, we investigated the safety of pACP2283 and pACP1780 both in vivo and in vitro. […] Additionally, we conducted an acute toxicity experiment in tumor‐free mice by administering pACPs with increasing concentrations into the abdomen. […] This temporary decrease in body weight growth rate may be attributed to the high concentrations of pACPs, which temporarily disturbed the mice's homeostasis.
To assess the toxicity of pACP1780 and pACP2283 at the cellular level, HEK293 cells were grown to 60% confluence in complete medium (10% FBS) for 24 h, and then treated with increasing concentrations (1.5, 3, 6, 12.5, 25, 50, and 100 µM) of each pACPs in maintenance medium (1% FBS) for 24 h. The viability of HEK293 cells was determined using the MTT Cell Proliferation and Cytotoxicity Assay Kit following the manufacturer's instructions. For acute toxicity in tumor‐free mice, the pACPs were injected into the abdomen at increasing concentrations of 2, 10, and 50 mg kg^−1 of mouse weight over three days, and the body weights were recorded throughout the process.

Sequence | Survival rate of cancer cells in primary screening (LCC) | toxicity to HEK293 cells (HEK293 cells)
RRFAWIGKLQSRKVRNNIRQYRTKIVRQMRRQIFRQMKQKAE [pACP1780] | 0.47 | no toxicity to HEK293 cells
WWRRAERSVRRFFGTPIGPFPEIFGRRKAHKKKIIAKFDSVNG [pACP2283] | 0.49 | no toxicity to HEK293 cells
